Test results from paper PMC6694116, “A CRISPR-Cas12a-derived biosensing platform for the highly sensitive detection of diverse small molecules” (Nature Communications, 2019).

Key:
HosA = HosA (Escherichia coli, UniProt P69782); experiment: EMSA, dissociation of operator dsDNA; format: binding; conditions: pH 7.5, room temperature; allosteric effector
CBD-HosA = CBD-HosA (Escherichia coli, UniProt P69782); experiment: EMSA, dissociation of operator dsDNA; format: binding; conditions: 1.8 mM p-HBA in the specificity test; pH 7.5, room temperature; allosteric effector; also Cas12a read-out with immobilised protein
CBD-HosA, sequence (P69782 whole entry): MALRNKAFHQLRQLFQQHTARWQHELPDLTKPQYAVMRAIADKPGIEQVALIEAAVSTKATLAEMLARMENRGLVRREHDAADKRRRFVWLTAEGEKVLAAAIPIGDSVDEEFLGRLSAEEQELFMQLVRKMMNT

CBD-TetR [1] = biological target: CBD-TetR (Escherichia coli, UniProt P04483); conditions: pH 7.5, room temperature; allosteric effector
CBD-TetR (Escherichia coli, UniProt P04483), sequence (P04483 whole entry): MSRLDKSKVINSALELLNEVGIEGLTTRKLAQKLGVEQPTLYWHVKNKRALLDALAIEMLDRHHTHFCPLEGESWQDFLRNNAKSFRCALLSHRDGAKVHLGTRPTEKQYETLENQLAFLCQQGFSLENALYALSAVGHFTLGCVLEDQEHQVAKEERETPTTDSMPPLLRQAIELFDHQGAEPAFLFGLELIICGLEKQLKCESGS

CBD-HucR [2] = biological target: T1, CBD-HucR (Deinococcus radiodurans, UniProt Q9RV71); experiment: EMSA, dissociation of operator dsDNA; format: binding; conditions: 0.05-500 uM uric acid; pH 7.5, room temperature; allosteric effector; also Cas12a read-out with immobilised protein
T1 construct: gene DR_1159
T1 sequence (Q9RV71 1-181): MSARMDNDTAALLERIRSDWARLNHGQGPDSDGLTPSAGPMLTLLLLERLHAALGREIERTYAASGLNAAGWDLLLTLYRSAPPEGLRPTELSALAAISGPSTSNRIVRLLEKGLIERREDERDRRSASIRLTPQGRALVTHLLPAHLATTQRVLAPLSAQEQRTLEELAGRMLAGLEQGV

CBD-HucR [3] = biological target: T2, CBD-HucR (UniProt Q9RV71 1-181); experiment: EMSA; 25-200 nM protein, 40 nM DNA; EMSA: 10 mM Tris-HCl pH 7.5, 100 mM KCl, 1 mM EDTA, 0.1 mM DTT, 5% glycerol, 0.01 mg/mL BSA, room temperature 30 min; 1.5% agarose gel in Tris-borate-EDTA at 4; conditions: protein: recombinant; tags: CBD fused via (SGGGG)4 linker; His tag; chain copies: 2; blunt
T2 sequence: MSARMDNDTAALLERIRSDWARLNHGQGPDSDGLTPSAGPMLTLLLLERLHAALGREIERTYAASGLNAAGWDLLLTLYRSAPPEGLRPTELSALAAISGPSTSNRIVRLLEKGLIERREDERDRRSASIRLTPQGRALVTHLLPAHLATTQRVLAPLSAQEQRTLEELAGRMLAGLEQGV

CBD-TetR [4] = biological target: CBD-TetR (UniProt P04483 1-207); experiment: as above; conditions: protein: recombinant; tags: CBD fused via (SGGGG)4 linker; His tag; chain copies: 2; blunt
CBD-TetR (UniProt P04483 1-207), sequence (P04483 whole entry, the tested form may be a part): as the sequence (P04483 whole entry) above

HosA, sequence (P69782 whole entry): as the sequence (P69782 whole entry) above

Which results are given for O=C(O)c1ccc(O)cc1 [p-HBA, p-hydroxybenzoic acid]?
EMSA, dissociation of operator dsDNA (HosA): there were no significant differences between HosA and CBD-HosA on gel-shift images; EMSA, dissociation of operator dsDNA (CBD-HosA): p-HBA induced the almost complete dissociation of dsDNA from the CBD–HosA–dsDNA complex

Which “EMSA, dissociation of operator dsDNA” value (CBD-TetR [1]) does the source give for CN(C)[C@@H]1C(=O)C(C(N)=O)=C(O)[C@@]2(O)C(=O)C3=C(O)c4c(O)cccc4[C@@](C)(O)[C@H]3C[C@@H]12 [tetracycline] here?
The value was “Both CBD-TetR and CBD-HosA show perfect dsDNA-binding and effector-induced allosteric activities”.

With O=c1[nH]c(=O)c2[nH]c(=O)[nH]c2[nH]1 [uric acid] as the molecule, how does the “EMSA, dissociation of operator dsDNA” value (CBD-HucR [2]) read?
The value was “increasing amounts of dsDNA dissociated from the CBD–HucR–dsDNA complex”.

B1: dsDNA(HucR) (dsDNA)
DNA 1: TACTGAGCCATGTATCCAGGTCATTGTACTTAGATGTCTACCTAAGCTCTGACAGTTCCA
DNA 2: TGGAACTGTCAGAGCTTAGGTAGACATCTAAGTACAATGACCTGGATACATGGCTCAGTA
Does B1 bind (CBD-HucR [3])?
Result: binds

B2: dsDNA(TetR) (dsDNA)
DNA 1: TGAGCCATGTATCCAGGTCATTTGTCCCTATCAGTGATAGAGAAGCTCTGACAGTTCCA
DNA 2: TGGAACTGTCAGAGCTTCTCTATCACTGATAGGGACAAATGACCTGGATACATGGCTCA
Does B2 bind (CBD-TetR [4])?
Result: binds
